Tests used:
HIF‐1α protein level = experiment: western blot of HIF‐1α protein level in cells; assay type: cell-based, human
Method: Cells were lysed with RIPA lysis (Epizyme, PC101) containing 1% cocktail protease inhibitors (MCE), and protein concentrations were determined by BCA kits (Beyotime, P0012S). Samples were denatured using DS‐PAGE Protein Staining and Loading Buffer (5×) (Beyotime, P0015L) followed by boiling for 10 min at 98 °C then the proteins were fractionated by 10% or 12.5% SDS‐PAGE and transferred to Cellulose Nitrate Membrane Filters (WHATMAN). After blocking in 5% non‐fat milk for 2 h at room temperature, the membrane was incubated overnight with specific antibodies at 4 °C, followed by horseradish peroxidase (HRP)‐linked anti‐mouse or anti‐rabbit secondary antibody (Cell Signaling Technology). Finally, An Immobilon Western Chemiluminescent HRP Substrate Kit (Merck Millipore) was used for protein bands detection. In addition, blots were probed with anti‐β‐actin (Merck, Darmstadt, Germany) antibody as the internal control.

F1‐ATP synthase complex = F1‐ATP synthase complex (Sus scrofa, UniProt K7GLT8+P80021); experiment: fluorescence polarization binding assay; set-up: species or system pig; conditions: F1‐ATPase 30 nM, HI‐103 4 nM, competitor 1 μM
Text: ATP5A and ATP5B are important components of FOF1–ATP synthase, also known as ATP synthase, which is a protein complex that catalyzes ATP synthesis by utilizing energy from the translocation of protons across biological membranes.^[ [40] ^] FOF1‐ATP synthase consists of two domains: the membrane‐spanning domain, FO, which acts as a proton channel, and the soluble catalytic domain, F1, which synthesizes ATP and is composed of nine subunits(α 3 β 3 γδɛ).^[ [41], [42], [43], [44] ^] […] To verify whether HI‐101 targeted ATP5A and ATP5B, we knocked down the subunits of F1 domains separately by shRNA.
F1‐ATPase at indicated concentrations was incubated with HI‐103 (4 nM), bodipy‐1 was as a negative molecule, conduct the experiment after incubating in 96‐well microplates of black polystyrene for 10 min. The FP results were analyzed with GraphPad Prism 9.0.

[1] = system: HIF‐1α and HIF‐1β mRNA expression; experiment: RT‐qPCR of HIF‐1α and HIF‐1β mRNA; assay type: cell-based, human
Text: The whole protein synthesis process can be divided into four major steps: transcription, translation, posttranslational modifications and folding to a mature protein, and protein secretion.^[ [52] ^] We then investigated the potential effects of HI‐101 on HIF‐1α transcription and translation. […] On the basis of the existing experimental results, we draw a conclusion that HI‐101 inhibited the synthesis of nascent HIF‐1α protein without affecting its transcription.
Total RNA was isolated using Trizol reagent (Invitrogen). Complementary DNA was synthesized using a Reverse Transcriptase reagent (Promega). Fluorescence real‐time PCR was performed with the double‐stranded DNA dye SYBR Master Mix (Roche Diagnostics Corporation, Indianapolis, IN, USA) and the Applied Biosystems Step One Plus detection system (ABI 7900). The upstream and downstream gene‐specific primers were as follows. • HIF‐1α sense: 5′‐[…]‐3′, • HIF‐1α antisense: 5′‐[…]‐3′; • HIF‐1β sense: 5′‐[…]‐3′, • HIF‐1β antisense:5′‐[…]‐3′; • VEGF sense: 5′‐[…]‐3′, • VEGF antisense: 5′‐[…]‐3′; • PDK1 sense:5′‐[…]‐3′, • PDK1 antisense:5′‐GGAGGTCTCAACACGAGGT‐3′; • β‐actin sense: 5′‐[…]‐3′, • β‐actin antisense: 5′‐[…]‐3′; • ATP5D sense:5′‐ […]‐3′, • ATP5D antisense: 5′‐[…]‐3′; • ATP5E sense: 5′‐ […]‐3′, • ATP5E antisense:5′‐[…]‐3′; • ATP5F1 sense: 5′‐ […]‐3′, • ATP5F1 antisense:5′‐[…]‐3′.

[2] = target: T1, interaction between ATP5B and HIF‐1α mRNA (Homo sapiens, UniProt P06576); experiment: RNA‐binding protein immunoprecipitation; assay type: cell-based; conditions: immunoprecipitation with anti‐ATP5B antibody
T1 construct: endogenous in cells
Text: It has been reported recently that KUSC‐5037 inhibited HIF‐1α transcription by suppressing FoF1‐ATP synthase activity.^[ [35] ^] Thus, we wondered whether HI‐101 inhibited HIF‐1α translation in a similar way. Several ATP synthase inhibitors with various mechanisms of action have been reported.^[ [54] ^] Among them, Oligomycin inhibits the ATP synthase activity by binding the FO domain; Bedaquiline, an FDA‐approved drug, inhibits mitochondrial ATP production by targeting the gamma subunit of the ATP synthase;^[ [55] ^] Aurovertin B decreases ATP synthase activity by targeting the subunits of F1 domain. We first measured HIF‐1α transcriptional activity and protein level with the presence of reported ATP synthase inhibitors. […] A recent study reported that ATP5B shut down mPTP by binding circRNA SCAR in an enzymatic‐independent way,^[ [56] ^] which reminded us whether ATP5B played a similar role in blocking HIF‐1α translation. RNA‐binding protein immunoprecipitation was then performed using the Magna RIP RNA‐Binding Protein Immunoprecipitation Kit (Millipore, Burlington, MA) to detect the interaction between ATP5B and HIF‐1α mRNA.

With `O=C(Nc1ccc(C23CC4CC(CC(C4)C2)C3)cc1)c1cccc(Cl)c1` [1‐3a, N‐(4‐((3r,5r,7r)‐Adamantan‐1‐yl)Phenyl)−3‐Chlorobenzamide] the “rate of HIF‐1α protein degradation” value (HIF‐1α protein level; 10 µM with 100 µg mL^−1 CHX, hypoxia) was “did not have a significant effect on the rate of HIF‐1α protein degradation”, the “HIF‐1α protein expression” value (HIF‐1α protein level; ATP5A or ATP5B knocked down by shRNA, up to 30 µM) was “failed to decrease HIF‐1α protein expression” and the “HIF‐1α protein level” value (HIF‐1α protein level; hit confirmation, Figure S5) was “significantly reduced HIF‐1α protein level”. For the same compound, the “HIF‐1α protein level” value (HIF‐1α protein level; hypoxia) was “specifically reduced the protein level of HIF‐1α in a dose‐dependent manner”, the “competitive fluorescence polarization binding” value (F1‐ATP synthase complex) was “bound to F1‐ATP synthase complex in a similar way as HI‐103” and the “HIF‐1α and HIF‐1β mRNA expression” value [1] was “did not affect HIF‐1α and HIF‐1β mRNA expression”. For the same compound, the “HIF‐1α mRNA binding to ATP5B” value [2] was “improved HIF‐1α mRNA binding to ATP5B”.

Source: article PMC10477886, “Adamantaniline Derivatives Target ATP5B to Inhibit Translation of Hypoxia Inducible Factor‐1α” (Advanced Science, 2023)
